# Marks after values point to notes of the source that are not given here.
# How the values were obtained:
# Type in all cases: in vivo, human (patients with PD)
# [1] = 12-hour levodopa plasma pharmacokinetics; conditions: for Levodopa AUCτ / Levodopa Cavg / Levodopa Cmax / Levodopa Cmin: mean; for Levodopa tmax: median; for Levodopa Cmax (over all intakes of the 12-hour pharmacokinetics; Cmax,max) / Levodopa Cmin (over all intakes, excluding first predose; Cmin,min): mean (%CV); for Levodopa Cmin,min, geometric mean (90% CI): N 11; for Levodopa Cmax,max, geometric mean (90% CI): N 12
# Procedure: The study design is illustrated in Figure 1.
# Pharmacokinetic evaluation occurred over 12 hours with sampling every 30 minutes, except for the last sample following each LD dose in the opicapone plus four LD intake regimen, which was sampled at 1 hour. The main pharmacokinetics parameters assessed included maximum observed plasma concentration (Cmax), time to achieve peak plasma levels (tmax), minimum observed plasma concentration (Cmin), plasma elimination half‐life (t1/2), area under the curve (AUC), and fluctuation index (FI; as an expression of peak‐to‐trough fluctuation, Cmax, and Cmin, relative to average concentration [Cavg]). The pharmacokinetics of the LD metabolite 3‐O‐methyldopa (3‐OMD) was also evaluated.
# Descriptive statistics were used to summarize the pharmacokinetics parameters for LD and 3‐OMD for each of the three regimens. […] No formal comparison was performed between opicapone regimens.
# [2] = tested on: patients with PD and end-of-dose motor fluctuations; test: 24-hour patient Hauser on/off diary; conditions: for ON-time With Non-Troublesome Dyskinesia / ON-time With Troublesome Dyskinesia / ON-time Without Dyskinesia / Total OFF-time / Total ON-time: 24-hour Hauser diary, mean (SD); for 24-h total off time, geometric mean (90% CI) / 24-h total on time, geometric mean (90% CI): N 12
# Procedure: Clinical and safety/tolerability outcomes were also assessed as exploratory secondary outcomes. Clinical outcomes included on and off time assessed using patient‐rated tools. The timing of on and off states was registered (in real time) by the investigators during the matching 12‐hour pharmacokinetic evaluation (as such applied on pharmacokinetics days only), and patients also completed 24‐hour patient Hauser on/off diary charts[21] (in 30‐minute blocks) during the 3 days before each pharmacokinetic visit. Diary states of interest were off time and on time, including on without dyskinesia, on with nontroublesome dyskinesia, and on with troublesome dyskinesia. In addition, the Patient Global Impression of Change (PGI‐C) of opicapone 50 mg was evaluated at the end of the LD/CD 400/100 mg plus opicapone treatment compared with before the start of opicapone treatment.[22] Safety and tolerability endpoints included treatment‐emergent adverse events (TEAEs), serious TEAEs, and TEAEs leading to discontinuation.
# Clinical outcomes are also presented descriptively. A paired t test was used for the comparison of 12‐hour off and on time, 24‐hour off and on time, time to on, and time to best on between each opicapone‐containing regimen and the regimen without opicapone. Estimates of mean difference and corresponding 90% CIs were reported for all main variables.
# [3] = 12-hour 3-O-methyldopa plasma pharmacokinetics; conditions: for 3-O-methyldopa Cmax,max, Geometric Mean (90% CI): N 12; for 3-O-methyldopa tmax: median; for 3-O-methyldopa Cmax,max: mean (%CV)
# Procedure: Following screening, all patients received a daily LD/CD dose of 500/125 mg for 2 weeks, administered as LD/CD 100/25 mg five times a day (five‐intake LD/CD 500/125 mg), fixed every 3 hours (from 8 AM to 8 PM) at pharmacokinetic day. Patients were then randomly assigned (1:1) to receive two different regimens of opicapone 50 mg plus LD/CD (400/100 mg daily) for an additional 2 weeks. • Patients on opicapone regimen 1 received LD/CD 100/25 mg four times a day plus opicapone 50 mg at least 1 hour after the last administration of LD/CD each day (four‐intake LD/CD 400/100 mg plus opicapone 50 mg), fixed every 4 hours (from 8 AM to 8 PM) at pharmacokinetic day. • Patients on opicapone regimen 2 received alternating LD/CD 100/25 mg and 50/12.5 mg doses (ie, 100/25 mg, 50/12.5 mg, 100/25 mg, 50/12.5 mg, and 100/25 mg) five times a day plus opicapone 50 mg at least 1 hour after the last administration of LD/CD each day (five‐intake LD/CD 400/100 mg plus opicapone 50 mg), fixed every 3 hours (from 8 AM to 8 PM) at pharmacokinetic day.
# The primary objective of the study was to evaluate the pharmacokinetics of LD in the two opicapone LD/CD 400/100 mg dosing regimens (four and five intakes) when compared with the five‐intake LD/CD 500/125 mg regimen without opicapone. The pharmacokinetics study endpoint was set after 2 weeks of each treatment regimen (ie, at the end of the initial five‐intake LD/CD 500/125 mg treatment regimen and at the end of the LD/CD 400/100 mg plus opicapone treatment). Pharmacokinetic evaluation occurred over 12 hours with sampling every 30 minutes, except for the last sample following each LD dose in the opicapone plus four LD intake regimen, which was sampled at 1 hour. The main pharmacokinetics parameters assessed included maximum observed plasma concentration (Cmax), time to achieve peak plasma levels (tmax), minimum observed plasma concentration (Cmin), plasma elimination half‐life (t1/2), area under the curve (AUC), and fluctuation index (FI; as an expression of peak‐to‐trough fluctuation, Cmax, and Cmin, relative to average concentration [Cavg]). The pharmacokinetics of the LD metabolite 3‐O‐methyldopa (3‐OMD) was also evaluated.
# Descriptive statistics were used to summarize the pharmacokinetics parameters for LD and 3‐OMD for each of the three regimens. […] No formal comparison was performed between opicapone regimens. Pharmacokinetic parameters were evaluated within the same population for each LD/CD 400/100 mg plus opicapone treatment regimen compared with the LD/CD 500/125 mg without opicapone regimen. Geometric mean ratios and corresponding 90% confidence intervals (CIs) for the LD and 3‐OMD log‐transformed pharmacokinetics parameters (AUCtotal, Cmax,max and Cmin,min [only for LD]) were calculated using a paired t test for the comparison between the five‐intake LD/CD 500/125 mg treatment without opicapone and each of the two LD/CD 400/100 mg plus opicapone regimens; only data from completers (patients with data for both regimens) were used for this analysis.
# [4] = five-intake LD/CD 500/125 mg vs five-intake LD/CD 400/100 mg plus opicapone 50 mg, first LD/CD intake
# [5] = five-intake LD/CD 500/125 mg vs five-intake LD/CD 400/100 mg plus opicapone 50 mg, fourth LD/CD intake
# [6] = five-intake LD/CD 500/125 mg vs five-intake LD/CD 400/100 mg plus opicapone 50 mg
# [7] = five-intake LD/CD 500/125 mg vs five-intake LD/CD 400/100 mg plus opicapone 50 mg, second LD/CD intake
# [8] = five-intake LD/CD 500/125 mg vs five-intake LD/CD 400/100 mg plus opicapone 50 mg, third LD/CD intake
# [9] = five-intake LD/CD 500/125 mg vs four-intake LD/CD 400/100 mg plus opicapone 50 mg, first LD/CD intake
# [10] = five-intake LD/CD 500/125 mg vs four-intake LD/CD 400/100 mg plus opicapone 50 mg, fourth LD/CD intake
# [11] = five-intake LD/CD 500/125 mg vs four-intake LD/CD 400/100 mg plus opicapone 50 mg
# [12] = five-intake LD/CD 500/125 mg vs four-intake LD/CD 400/100 mg plus opicapone 50 mg, second LD/CD intake
# [13] = five-intake LD/CD 500/125 mg vs four-intake LD/CD 400/100 mg plus opicapone 50 mg, third LD/CD intake
# [14] = five-intake levodopa/carbidopa 500/125 mg vs five-intake levodopa/carbidopa 400/100 mg plus opicapone 50 mg
# [15] = five-intake levodopa/carbidopa 500/125 mg vs four-intake levodopa/carbidopa 400/100 mg plus opicapone 50 mg
# [16] = 5-intake LD/CD 500/125mg vs 4-intake LD/CD 400/100mg plus OPC 50mg
# [17] = 5-intake LD/CD 500/125mg vs 5-intake LD/CD 400/100mg plus OPC 50mg
# [18] = 5-intake LD/CD 500/125mg vs 4-intake LD/CD 400/100mg plus OPC 50mg, 1st LD/CD intake, mean
# [19] = 5-intake LD/CD 500/125mg vs 4-intake LD/CD 400/100mg plus OPC 50mg, 2nd LD/CD intake, mean
# [20] = 5-intake LD/CD 500/125mg vs 4-intake LD/CD 400/100mg plus OPC 50mg, 3rd LD/CD intake, mean
# [21] = 5-intake LD/CD 500/125mg vs 4-intake LD/CD 400/100mg plus OPC 50mg, 4th LD/CD intake, mean
# [22] = 5-intake LD/CD 500/125mg vs 5-intake LD/CD 400/100mg plus OPC 50mg, 1st LD/CD intake, mean
# [23] = 5-intake LD/CD 500/125mg vs 5-intake LD/CD 400/100mg plus OPC 50mg, 2nd LD/CD intake, mean
# [24] = 5-intake LD/CD 500/125mg vs 5-intake LD/CD 400/100mg plus OPC 50mg, 3rd LD/CD intake, mean
# [25] = 5-intake LD/CD 500/125mg vs 5-intake LD/CD 400/100mg plus OPC 50mg, 4th LD/CD intake, mean
substance,measurement,setting,value
levodopa/carbidopa [LD/CD],Levodopa AUCτ,[1]; [4],1788^b h · ng/mL
same,Levodopa Cavg,[1]; [4],596^b ng/mL
same,Levodopa Cmax,[1]; [4],1356 ng/mL
same,Levodopa Cmin,[1]; [4],18.1 ng/mL
same,Levodopa tmax,[1]; [4],0.5 h
same,Levodopa AUCτ,[1]; [5],2871^d h · ng/mL
same,Levodopa Cavg,[1]; [5],957^d ng/mL
same,Levodopa Cmax,[1]; [5],1540 ng/mL
same,Levodopa Cmin,[1]; [5],455 ng/mL
same,Levodopa tmax,[1]; [5],1.5 h
same,"Levodopa Cmax (over all intakes of the 12-hour pharmacokinetics; Cmax,max)",[1]; [6],1999 (26.3) ng/mL
same,"Levodopa Cmin (over all intakes, excluding first predose; Cmin,min)",[1]; [6],267.0 (82.9) ng/mL
same,Levodopa AUCτ,[1]; [7],2269^b h · ng/mL
same,Levodopa Cavg,[1]; [7],756^b ng/mL
same,Levodopa Cmax,[1]; [7],1466 ng/mL
same,Levodopa Cmin,[1]; [7],283 ng/mL
same,Levodopa tmax,[1]; [7],1.0 h
same,Levodopa AUCτ,[1]; [8],2871^d h · ng/mL
same,Levodopa Cavg,[1]; [8],957^d ng/mL
same,Levodopa Cmax,[1]; [8],1530 ng/mL
same,Levodopa Cmin,[1]; [8],365 ng/mL
same,Levodopa tmax,[1]; [8],0.5 h
same,Levodopa AUCτ,[1]; [9],2076 ng·h/mL
same,Levodopa Cavg,[1]; [9],692 ng/mL
same,Levodopa Cmax,[1]; [9],1393 ng/mL
same,Levodopa Cmin,[1]; [9],18.6 ng/mL
same,Levodopa tmax,[1]; [9],0.75 h
same,Levodopa AUCτ,[1]; [10],3414^d h · ng/mL
same,Levodopa Cavg,[1]; [10],1138^d ng/mL
same,Levodopa Cmax,[1]; [10],1852 ng/mL
same,Levodopa Cmin,[1]; [10],559 ng/mL
same,Levodopa tmax,[1]; [10],1.5 h
same,"Levodopa Cmax (over all intakes of the 12-hour pharmacokinetics; Cmax,max)",[1]; [11],2130 (25.8) ng/mL
same,"Levodopa Cmin (over all intakes, excluding first predose; Cmin,min)",[1]; [11],264.5 (32.8) ng/mL
same,Levodopa AUCτ,[1]; [12],2637^c h · ng/mL
same,Levodopa Cavg,[1]; [12],879^c ng/mL
same,Levodopa Cmax,[1]; [12],1751 ng/mL
same,Levodopa Cmin,[1]; [12],266 ng/mL
same,Levodopa tmax,[1]; [12],1.5 h
same,Levodopa AUCτ,[1]; [13],2850^f h · ng/mL
same,Levodopa Cavg,[1]; [13],950^f ng/mL
same,Levodopa Cmax,[1]; [13],1310 ng/mL
same,Levodopa Cmin,[1]; [13],403 ng/mL
same,Levodopa tmax,[1]; [13],1.5 h
same,"Levodopa Cmin,min, geometric mean (90% CI)",[1]; [14],"218.9 (156.1, 307.0) ng/mL"
same,"Levodopa Cmax,max, geometric mean (90% CI)",[1]; [14],"1931 (1667, 2237) ng/mL"
same,"Levodopa Cmin,min, geometric mean (90% CI)",[1]; [15],"252.2 (211.4, 301.0) ng/mL"
same,"Levodopa Cmax,max, geometric mean (90% CI)",[1]; [15],"2059 (1782, 2380) ng/mL"
same,ON-time With Non-Troublesome Dyskinesia,[2]; [16],86.7 (72.6) min
same,ON-time With Troublesome Dyskinesia,[2]; [16],35.0 (26.5) min
same,ON-time Without Dyskinesia,[2]; [16],411.7 (122.6) min
same,Total OFF-time,[2]; [16],442.50 (96.3) min
same,Total ON-time,[2]; [16],488.3 (110.9) min
same,ON-time With Non-Troublesome Dyskinesia,[2]; [17],66.4 (48.0) min
same,ON-time With Troublesome Dyskinesia,[2]; [17],20.0 (24.49) min
same,ON-time Without Dyskinesia,[2]; [17],446.7 (110.0) min
same,Total OFF-time,[2]; [17],431.70 (100.3) min
same,Total ON-time,[2]; [17],519.2 (91.2) min
same,"24-h total off time, geometric mean (90% CI)",[2]; [14],"420.3 (369.8, 477.6) min"
same,"24-h total on time, geometric mean (90% CI)",[2]; [14],"512.5 (470.9, 557.9) min"
same,"24-h total off time, geometric mean (90% CI)",[2]; [15],"433.0 (386.4, 485.0) min"
same,"24-h total on time, geometric mean (90% CI)",[2]; [15],"476.5 (421.9, 538.2) min"
same,"3-O-methyldopa Cmax,max, Geometric Mean (90% CI)",[3]; 5-intake LD/CD 500/125mg vs 4-intake LD/CD 400/100mg +OPC 50mg,"4264 (3631, 5006) ng/mL"
same,3-O-methyldopa AUCτ,[3]; [18],10068^a h*ng/mL
same,3-O-methyldopa Cmax,[3]; [18],3453 ng/mL
same,3-O-methyldopa Cmin,[3]; [18],3021 ng/mL
same,3-O-methyldopa tmax,"[3]; 5-intake LD/CD 500/125mg vs 4-intake LD/CD 400/100mg plus OPC 50mg, 1st LD/CD intake",1.75 h
same,3-O-methyldopa Cmax,[3]; [19],3619 ng/mL
same,3-O-methyldopa Cmin,[3]; [19],3077 ng/mL
same,3-O-methyldopa tmax,"[3]; 5-intake LD/CD 500/125mg vs 4-intake LD/CD 400/100mg plus OPC 50mg, 2nd LD/CD intake",2.5 h
same,3-O-methyldopa AUCτ,[3]; [20],14278^b h*ng/mL
same,3-O-methyldopa Cmax,[3]; [20],4011 ng/mL
same,3-O-methyldopa Cmin,[3]; [20],3437 ng/mL
same,3-O-methyldopa tmax,"[3]; 5-intake LD/CD 500/125mg vs 4-intake LD/CD 400/100mg plus OPC 50mg, 3rd LD/CD intake",2.71 h
same,3-O-methyldopa AUCτ,"[3]; 5-intake LD/CD 500/125mg vs 4-intake LD/CD 400/100mg plus OPC 50mg, 4th LD/CD intake, 1 patient",13519^c h*ng/mL
same,3-O-methyldopa Cmax,[3]; [21],4435 ng/mL
same,3-O-methyldopa Cmin,[3]; [21],3766 ng/mL
same,3-O-methyldopa tmax,"[3]; 5-intake LD/CD 500/125mg vs 4-intake LD/CD 400/100mg plus OPC 50mg, 4th LD/CD intake",2.5 h
same,"3-O-methyldopa Cmax,max",[3]; [16],4447 (29.2) ng/mL
same,"3-O-methyldopa Cmax,max, Geometric Mean (90% CI)",[3]; 5-intake LD/CD 500/125mg vs 5-intake LD/CD 400/100mg +OPC 50mg,"4201 (3733, 4727) ng/mL"
same,3-O-methyldopa AUCτ,[3]; [22],8991^g h*ng/mL
same,3-O-methyldopa Cmax,[3]; [22],3191 ng/mL
same,3-O-methyldopa Cmin,[3]; [22],2868 ng/mL
same,3-O-methyldopa tmax,"[3]; 5-intake LD/CD 500/125mg vs 5-intake LD/CD 400/100mg plus OPC 50mg, 1st LD/CD intake",1.5 h
same,3-O-methyldopa AUCτ,[3]; [23],9002^d h*ng/mL
same,3-O-methyldopa Cmax,[3]; [23],3406 ng/mL
same,3-O-methyldopa Cmin,[3]; [23],2907 ng/mL
same,3-O-methyldopa tmax,"[3]; 5-intake LD/CD 500/125mg vs 5-intake LD/CD 400/100mg plus OPC 50mg, 2nd LD/CD intake",2.5 h
same,3-O-methyldopa AUCτ,"[3]; 5-intake LD/CD 500/125mg vs 5-intake LD/CD 400/100mg plus OPC 50mg, 3rd LD/CD intake, 1 patient",11951^c h*ng/mL
same,3-O-methyldopa Cmax,[3]; [24],3875 ng/mL
same,3-O-methyldopa Cmin,[3]; [24],3151 ng/mL
same,3-O-methyldopa tmax,"[3]; 5-intake LD/CD 500/125mg vs 5-intake LD/CD 400/100mg plus OPC 50mg, 3rd LD/CD intake",2.5 h
same,3-O-methyldopa Cmax,[3]; [25],4170 ng/mL
same,3-O-methyldopa Cmin,[3]; [25],3586 ng/mL
same,3-O-methyldopa tmax,"[3]; 5-intake LD/CD 500/125mg vs 5-intake LD/CD 400/100mg plus OPC 50mg, 4th LD/CD intake",2.71 h
same,"3-O-methyldopa Cmax,max",[3]; [17],4300 (22.4) ng/mL
